Assay [1] relates to Primary non-IBD patient-derived colonic fibroblasts. The experiment in a line: TGF-β1-induced collagen expression in primary non-IBD patient-derived colonic fibroblasts. The assay is classed as cell-based, human. The following applies: TGF-β1 10 ng/ml; elafin 1 μg/ml 24 hours. How it is done:
Cleveland Clinic IRB directives (IRB #17-1167). Primary non-IBD patient-derived colonic fibroblasts (H6231) were purchased from Cell Biologics. All primary colonic fibroblasts were cultured in fibroblast medium (M2267, Cell Biologics). Human colonic CCD-18Co fibroblasts (ATCC) were cultured in minimal essential medium Eagle's medium (MEM) containing 10% fetal bovine serum and 1% penicillin-streptomycin 6, 20. All fibroblasts were grown to 80% confluence and then switched to serum-free media overnight for experiments.
For activation of protease-activated receptors (PARs), fibroblasts were pretreated with 0.8% DMSO, 10 μM PAR1 agonist TRAP-6 (HY-P0078, MCE), 10 μM PAR2 agonist SLIGKV-NH2 (Protease-Activated Receptor-2, amide, HY-P0283, MCE), or 0.4 μg/ml PAR2-activating protease recombinant cathepsin S (1183-CY-010, R&D Systems) for 30 minutes. For miR205-5p activation, fibroblasts were transfected with (30 picomoles/well) either control (YM00479902) or miR205-5p miRCURY LNA mimic (YM00472340) from Qiagen via Lipofectamine 3000 transfection reagent (L3000001, ThermoFisher) in Opti-MEM (#31985062, ThermoFisher) overnight. For miR205-5p inhibition, fibroblasts were pretreated with 50nM either control (Y100199006) or miR205-5p power inhibitors (Y104101508-DDA) from Qiagen overnight. […]

Another assay relates to CD patient-derived PBMCs. As to the kind of experiment: Cytokine multiplex assay in serum exosome-preconditioned CD PBMCs. The format is cell-based, human. Conditions: CDSE-preconditioned CD PBMCs; 1 μg/ml elafin 6 hours. How it is done: FIG. 30. Cytokine levels in mouse and human sera and CD-PBMCs. (A) Mouse serum cytokine levels were measured by a 23-plex multiplex assay (#M60009RDPD, Bio-Rad). n=5 mice per group. (B) Human serum cytokines were measured by a 27-plex multiplex assay (#M500KCAFOY, Bio-rad). 12 normal, 23 UC, and 43 CD patients. (C) CD patient-derived PBMCs were preconditioned with stricturing CD patient (CDS) or non-stricturing CD patient (CDNS)-derived serum exosomes for two hours, followed by exposure to either 0.1% TFA or 1 μg/ml elafin for 6 hours. The cell supernatants were collected for a 13-plex cytokine multiplex assay (HSTCMAG28SPMX13, Millipore Sigma). (D) A comparison of cytokine levels in mouse sera, human sera, and conditioned media of CDS and CDNS serum exosome-conditioned CD-PBMCs. ns=no significant difference. ND=below detection range. N/A=unavailable. Mo=monocytes. MO=macrophages, DC=dendritic cells.
CD PBMCs (#70052, […] Technologies) were cultured in RPMI1640 media containing 10% exosome-depleted fetal bovine serum (A2720803, ThermoFisher) and 1% penicillin-streptomycin. Some groups were conditioned with 100 μg/ml of human serum exosomes from either CDSE or non-stricturing CD (CDNSE) patients to mimic the CD chemical environment for two hours, followed by addition with either 0.1% TFA or 1 μg/ml elafin. […]

Assay [2] deals with mouse RAW264.7 macrophages. As to the kind of experiment: TNFα secretion in RAW264.7 macrophages. The assay is classed as cell-based. The following applies: elafin 10-1000 ng/ml, 6 h. How it is done: Mouse RAW264.7 macrophages (#TIB-71, ATCC) were cultured in Dulbecco's modified Eagle's medium (DMEM) (#11965-084, ThermoFisher) with 10% fetal bovine serum (FBS) (#10437-028, Life Technologies) and 1% penicillin/streptomycin/glutamine (P/S/G) (#10378-016, Life Technologies) mixture. The macrophages were serum-starved overnight, followed by exposure to fatty acid-free bovine serum albumin (BSA) (A7030, Sigma), sodium palmitate (P9767, Sigma), or lipopolysaccharide (LPS) (L5418, Sigma) for 2 h, and then the addition of elafin (10-1000 ng/ml) for additional 6 h. The cell-conditioned media were used for mouse TNFα ELISA (DY410, R&D Systems).

We go through one substance from patent US20230405078A1, “DETECTION AND TREATMENT OF INTESTINAL FIBROSIS” (THE REGENTS OF THE UNIVERSITY OF CALIFORNIA, priority 2020, published 2023).

In the case of “Elafin: small (6 kDa) human elastase-specific protease inhibitor and antimicrobial peptide; active form SEQ ID NO: 2 (AQEPVKGPVSTKPGSCPIILIRCAMLNPPNRCLKDTDCPGIKKCCEGSCGMACFVPQ; listed as Homo sapiens)”, in assay [1], the “TGF-β1 induced COL1A2 and ProCOL1A1 protein expression” value was “reversed”. In the assay on CD patient-derived PBMCs, the T-cell cytokine secretion entry is reported as “did not affect”. Further, in assay [2], the “LPS- and palmitate-induced TNFα secretion” value is listed as “did not affect”.
